Where a name gives a salt, the structure may show the parent alone. Read-outs that look alike come from different tables or passages of the source.

The source of these data is US9266883B2, “Ring-fused bicyclic pyridyl derivatives as FGFR4 inhibitors” (Novartis AG, priority 2013, dated 2016).

Assay [1] has as its target FGFR4 (GST-FGFR4(388-802)) (Homo sapiens (Human), UniProt P22455). The experiment in a line: In-vitro biochemical kinase assay for FGFR4 (Caliper microfluidic mobility shift).
The next assay concerns the target Tel-FGFR4 (Homo sapiens (Human), UniProt P22455). Nature of the assay: In vitro cellular kinase assay for FGFR4 (BaF3-Tel-FGFR4 cells, MSD capture ELISA of tyrosine phosphorylation). The assay is classed as cell-based.
Where [2] appears, read: read-out: Biochemical FGFR4 IC50.
The mark [3] stands for this setting: BaF3-Tel-FGFR4 cells, 1 hour incubation, read-out: Cellular BaF3 FGFR4 IC50.
Setting [4] is: biochemical FGFR4 assay, read-out: Biochemical IC50.
Where [5] appears, read: Cellular BaF3 FGFR4 assay, read-out: Cellular IC50.

Chain of FGFR4 (GST-FGFR4(388-802)) (P22455 388-802): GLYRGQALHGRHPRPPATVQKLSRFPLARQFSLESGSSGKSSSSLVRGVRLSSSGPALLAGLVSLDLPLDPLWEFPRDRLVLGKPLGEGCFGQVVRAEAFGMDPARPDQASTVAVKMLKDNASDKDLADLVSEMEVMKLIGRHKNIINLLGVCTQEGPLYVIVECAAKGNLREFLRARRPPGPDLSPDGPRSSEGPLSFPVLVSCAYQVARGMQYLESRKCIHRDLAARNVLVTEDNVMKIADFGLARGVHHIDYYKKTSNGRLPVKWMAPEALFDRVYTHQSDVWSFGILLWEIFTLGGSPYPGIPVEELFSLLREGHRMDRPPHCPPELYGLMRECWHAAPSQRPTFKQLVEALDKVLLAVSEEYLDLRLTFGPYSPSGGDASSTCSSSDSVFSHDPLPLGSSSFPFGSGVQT
Chain of Tel-FGFR4 (P22455 other isoform, or with tags, fused parts or gaps): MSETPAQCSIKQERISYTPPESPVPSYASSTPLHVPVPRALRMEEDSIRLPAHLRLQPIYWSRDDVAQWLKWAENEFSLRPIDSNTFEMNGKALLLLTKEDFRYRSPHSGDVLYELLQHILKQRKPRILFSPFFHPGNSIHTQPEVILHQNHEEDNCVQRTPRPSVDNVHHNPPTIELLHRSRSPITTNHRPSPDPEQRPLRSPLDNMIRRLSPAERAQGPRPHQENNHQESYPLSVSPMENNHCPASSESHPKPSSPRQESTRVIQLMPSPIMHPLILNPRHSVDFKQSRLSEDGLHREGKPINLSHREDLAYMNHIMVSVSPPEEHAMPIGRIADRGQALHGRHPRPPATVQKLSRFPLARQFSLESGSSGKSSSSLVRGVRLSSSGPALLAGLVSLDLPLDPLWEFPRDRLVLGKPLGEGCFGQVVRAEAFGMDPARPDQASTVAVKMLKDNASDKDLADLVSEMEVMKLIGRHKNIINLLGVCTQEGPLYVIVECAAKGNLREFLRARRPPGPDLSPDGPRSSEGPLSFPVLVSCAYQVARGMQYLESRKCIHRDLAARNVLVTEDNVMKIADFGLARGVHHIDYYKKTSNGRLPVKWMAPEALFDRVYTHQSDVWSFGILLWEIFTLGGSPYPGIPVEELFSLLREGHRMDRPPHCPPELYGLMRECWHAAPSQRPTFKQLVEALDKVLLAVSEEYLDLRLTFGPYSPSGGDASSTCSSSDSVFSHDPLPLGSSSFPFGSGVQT

For `CN1CCN(Cc2cc3c(nc2C=O)N(C(=O)Nc2cc(NCCOS(=O)(=O)O)c(C#N)cn2)CCC3)C(=O)C1` [Example 236, 2-((5-cyano-2-(7-formyl-6-((4-methyl-2-oxopiperazin-1-yl)methyl)-1,2,3,4-tetrahydro-1,8-naphthyridine-1-carboxamido)pyridin-4-yl)amino)ethyl hydrogen sulfate], the IC50 was 8.2 nM in assay [1] (setting [2]); 1130 nM on Tel-FGFR4 (setting [3]); above 3000 nM at Tel-FGFR4 (measured and considered as outlier values, not included in the table or list, read-out: IC50 in the cellular BaF3 FGFR4 assay, outlier values).

Take `CC(=O)N(C)Cc1cc2c(nc1C=O)N(C(=O)Nc1cc(SC(C)C)c(C#N)cn1)CCC2` [Example 240, N-(5-cyano-4-(isopropylthio)pyridin-2-yl)-7-formyl-6-((N-methylacetamido)methyl)-3,4-dihydro-1,8-naphthyridine-1(2H)-carboxamide]: the results for the IC50 (in assay [1] (setting [2]); at Tel-FGFR4 (setting [3])) were below 0.1 nM and 11.1 nM, respectively.

In the case of `COCCNc1cc(NC(=O)N2CCCc3cc(-c4cn(C)nc4C)c(C=O)nc32)ncc1C#N` [Example 250, N-(5-cyano-4-((2-methoxyethyl)amino)pyridin-2-yl)-6-(1,3-dimethyl-1H-pyrazol-4-yl)-7-formyl-3,4-dihydro-1,8-naphthyridine-1(2H)-carboxamide], the IC50 was determined as 6.7 nM in assay [1] (setting [2]) and 14.5 nM on Tel-FGFR4 (setting [3]).

`COCCNc1cc(NC(=O)N2CCCc3cc(C4CCN(CC(F)F)CC4)c(C=O)nc32)ncc1C#N` [Example 267, N-(5-cyano-4-((2-methoxyethyl)amino)pyridin-2-yl)-6-(1-(2,2-difluoroethyl)piperidin-4-yl)-7-formyl-3,4-dihydro-1,8-naphthyridine-1(2H)-carboxamide]: the results for the IC50 (in assay [1] (setting [2]); at Tel-FGFR4 (setting [3])) were 1.2 nM and 16.7 nM, respectively.

Regarding `CN1CCN(Cc2cc3c(nc2C=O)N(C(=O)Nc2cc(NC(C)(C)C)c(C#N)cn2)CCC3)C(=O)C1` [N-(4-(tert-butylamino)-5-cyanopyridin-2-yl)-7-formyl-6-((4-methyl-2-oxopiperazin-1-yl)methyl)-3,4-dihydro-1,8-naphthyridine-1(2H)-carboxamide], the IC50 in assay [1] (setting [4]) is 1.8 nM; on Tel-FGFR4 (setting [5]) it was 11.5 nM.

On to `N#Cc1cnc(NC(=O)N2CCCc3cc(C(F)F)c(C=O)nc32)cc1Cl` [N-(4-chloro-5-cyanopyridin-2-yl)-6-(difluoromethyl)-7-formyl-3,4-dihydro-1,8-naphthyridine-1(2H)-carboxamide], for which the IC50 in assay [1] (setting [4]) was 57 nM; at Tel-FGFR4 (setting [5]) it was 223 nM.

In the case of `CN1CCN(Cc2cc3c(nc2C=O)N(C(=O)Nc2cc(OCC(F)F)c(C#N)cn2)CCC3)C(=O)C1` [N-(5-cyano-4-(2,2-difluoroethoxyl)pyridin-2-yl)-7-formyl-6-((4-methyl-2-oxopiperazin-1-yl)methyl)-3,4-dihydro-1,8-naphthyridine-1(2H)-carboxamide], the IC50 was determined as 1.2 nM in assay [1] (setting [4]) and 6.7 nM on Tel-FGFR4 (setting [5]).

On to `CN1CCN(Cc2cc3c(nc2C=O)N(C(=O)Nc2cc(OCCF)c(C#N)cn2)CCC3)C(=O)C1` [N-(5-cyano-4-(2-fluoroethoxyl)pyridin-2-yl)-7-formyl-6-((4-methyl-2-oxopiperazin-1-yl)methyl)-3,4-dihydro-1,8-naphthyridine-1(2H)-carboxamide], for which the values for the IC50 (in assay [1] (setting [4]); at Tel-FGFR4 (setting [5])) were 2.4 nM and 7.1 nM, respectively.

For the compound `COCCOc1cc(NC(=O)N2CCCc3cc(CN4CCNCC4=O)c(C=O)nc32)ncc1C#N` [N-(5-cyano-4-(2-methoxyethoxyl)pyridin-2-yl)-7-formyl-6-((2-oxopiperazin-1-yl)methyl)-3,4-dihydro-1,8-naphthyridine-1(2H)-carboxamide trifluoroacetate], the figures for the IC50 (in assay [1] (setting [4]); on Tel-FGFR4 (setting [5])) were 4.6 nM and 56 nM, respectively.

In the case of `CC(C)(O)CNc1cc(NC(=O)N2CCCc3cc(C(F)F)c(C=O)nc32)ncc1C#N` [N-(5-cyano-4-((2-hydroxy-2-methylpropyl)amino)pyridin-2-yl)-6-(difluoromethyl)-7-formyl-3,4-dihydro-1,8-naphthyridine-1(2H)-carboxamide], the IC50 in assay [1] (setting [4]) was 1.6 nM; at Tel-FGFR4 (setting [5]), 10.3 nM.

Regarding `CN1CCN(Cc2cc3c(nc2C=O)N(C(=O)Nc2cc(NCC(C)(C)O)c(C#N)cn2)CCC3)C(=O)C1` [N-(5-cyano-4-((2-hydroxy-2-methylpropyl)amino)pyridin-2-yl)-7-formyl-6-((4-methyl-2-oxopiperazin-1-yl)methyl)-3,4-dihydro-1,8-naphthyridine-1(2H)-carboxamide], the IC50 in assay [1] (setting [4]) worked out at 0.9 nM; on Tel-FGFR4 (setting [5]), 4.8 nM.

In the case of `N#Cc1cnc(NC(=O)N2CCCc3cc(C(F)F)c(C=O)nc32)cc1NCCO` [N-(5-cyano-4-((2-hydroxyethyl)amino)pyridin-2-yl)-6-(difluoromethyl)-7-formyl-3,4-dihydro-1,8-naphthyridine-1(2H)-carboxamide], the IC50 was found to be 1 nM in assay [1] (setting [4]) and 5.5 nM on Tel-FGFR4 (setting [5]).

Regarding `CC(=O)N(C)Cc1cc2c(nc1C=O)N(C(=O)Nc1cc(NCCO)c(C#N)cn1)CCC2` [N-(5-cyano-4-((2-hydroxyethyl)amino)pyridin-2-yl)-7-formyl-6-((N-methylacetamido)methyl)-3,4-dihydro-1,8-naphthyridine-1(2H)-carboxamide], the results for the half-inhibitory concentration (IC50) (in assay [1] (setting [4]); on Tel-FGFR4 (setting [5])) were 0.5 nM and 8.1 nM, respectively.

For the compound `COC(C)(C)CNc1cc(NC(=O)N2CCCc3cc(C(F)F)c(C=O)nc32)ncc1C#N` [N-(5-cyano-4-((2-methoxy-2-methylpropyl)amino)pyridin-2-yl)-6-(difluoromethyl)-7-formyl-3,4-dihydro-1,8-naphthyridine-1(2H)-carboxamide], the IC50 in assay [1] (setting [4]) turned out to be 5.9 nM; on Tel-FGFR4 (setting [5]), 37 nM.

`COC(C)(C)CNc1cc(NC(=O)N2CCCc3cc(CN(C)C(C)=O)c(C=O)nc32)ncc1C#N` [N-(5-cyano-4-((2-methoxy-2-methylpropyl)amino)pyridin-2-yl)-7-formyl-6-((N-methylacetamido)methyl)-3,4-dihydro-1,8-naphthyridine-1(2H)-carboxamide]: the IC50 in assay [1] (setting [4]) came out at 0.7 nM; at Tel-FGFR4 (setting [5]) it was 4.9 nM.

`COCCNc1cc(NC(=O)N2CCCc3cc(-c4sc(C)nc4C)c(C=O)nc32)ncc1C#N` [N-(5-cyano-4-((2-methoxyethyl)amino)pyridin-2-yl)-6-(2,4-dimethylthiazol-5-yl)-7-formyl-3,4-dihydro-1,8-naphthyridine-1(2H)-carboxamide]: the IC50 came out at 9.5 nM in assay [1] (setting [4]) and 21 nM on Tel-FGFR4 (setting [5]).

`CCN(Cc1cc2c(nc1C=O)N(C(=O)Nc1cc(NCCOC)c(C#N)cn1)CCC2)C(=O)CN(C)C` [N-(5-cyano-4-((2-methoxyethyl)amino)pyridin-2-yl)-6-((2-(dimethylamino)-N-ethylacetamido)methyl)-7-formyl-3,4-dihydro-1,8-naphthyridine-1(2H)-carboxamide]: the concentration for half-maximal inhibition (IC50) came out at 0.5 nM in assay [1] (setting [4]) and 5.5 nM on Tel-FGFR4 (setting [5]).

As to `COCCNc1cc(NC(=O)N2CCCc3cc(CN(C)C(=O)CN(C)C)c(C=O)nc32)ncc1C#N` [N-(5-cyano-4-((2-methoxyethyl)amino)pyridin-2-yl)-6-((2-(dimethylamino)-N-methylacetamido)methyl)-7-formyl-3,4-dihydro-1,8-naphthyridine-1(2H)-carboxamide], the IC50 in assay [1] (setting [4]) is 0.2 nM; at Tel-FGFR4 (setting [5]) it was 6.1 nM.

With `COCCNc1cc(NC(=O)N2CCCc3cc(CN4CCNC(C)(C)C4=O)c(C=O)nc32)ncc1C#N` [N-(5-cyano-4-((2-methoxyethyl)amino)pyridin-2-yl)-6-((3,3-dimethyl-2-oxopiperazin-1-yl)methyl)-7-formyl-3,4-dihydro-1,8-naphthyridine-1(2H)-carboxamide], the values for the IC50 (in assay [1] (setting [4]); on Tel-FGFR4 (setting [5])) were 0.1 nM and 5.9 nM, respectively.

`COCCNc1cc(NC(=O)N2CCCc3cc(CN4CCC(N(C)C)C4)c(C=O)nc32)ncc1C#N` (stereo not drawn) [N-(5-cyano-4-((2-methoxyethyl)amino)pyridin-2-yl)-6-((3-(dimethylamino)pyrrolidin-1-yl)methyl)-7-formyl-3,4-dihydro-1,8-naphthyridine-1(2H)-carboxamide]: the values for the IC50 (in assay [1] (setting [4]); at Tel-FGFR4 (setting [5])) were 0.5 nM and 63 nM, respectively.

With `CCN1CCN(Cc2cc3c(nc2C=O)N(C(=O)Nc2cc(NCCOC)c(C#N)cn2)CCC3)C(=O)C1` [N-(5-cyano-4-((2-methoxyethyl)amino)pyridin-2-yl)-6-((4-ethyl-2-oxopiperazin-1-yl)methyl)-7-formyl-3,4-dihydro-1,8-naphthyridine-1(2H)-carboxamide], the results for the IC50 (in assay [1] (setting [4]); on Tel-FGFR4 (setting [5])) were 1.6 nM and 9.8 nM, respectively.

`COCCNc1cc(NC(=O)N2CCC(O)c3cc(CN4CCN(C)CC4=O)c(C=O)nc32)ncc1C#N` (stereo not drawn) [N-(5-cyano-4-((2-methoxyethyl)amino)pyridin-2-yl)-7-formyl-4-hydroxy-6-((4-methyl-2-oxopiperazin-1-yl)methyl)-3,4-dihydro-1,8-naphthyridine-1(2H)-carboxamide]: the IC50 in assay [1] (setting [4]) was 1.8 nM; on Tel-FGFR4 (setting [5]) it was 51.3 nM.

Take `COCCNc1cc(NC(=O)N2CCCc3cc(CN4C(=O)CN(C)CC4(C)C)c(C=O)nc32)ncc1C#N` [N-(5-cyano-4-((2-methoxyethyl)amino)pyridin-2-yl)-7-formyl-6-((2,2,4-trimethyl-6-oxopiperazin-1-yl)methyl)-3,4-dihydro-1,8-naphthyridine-1(2H)-carboxamide]: the IC50 in assay [1] (setting [4]) stood at 1.4 nM; at Tel-FGFR4 (setting [5]), 11 nM.

On to `COCCNc1cc(NC(=O)N2CCCc3cc(CN4CCCC4=O)c(C=O)nc32)ncc1C#N` [N-(5-cyano-4-((2-methoxyethyl)amino)pyridin-2-yl)-7-formyl-6-((2-oxopyrrolidin-1-yl)methyl)-3,4-dihydro-1,8-naphthyridine-1(2H)-carboxamide], for which the results for the IC50 (in assay [1] (setting [4]); at Tel-FGFR4 (setting [5])) were 1.1 nM and 3.6 nM, respectively.

As for `COCCNc1cc(NC(=O)N2CCCc3cc(CN4CCN(C)C(=O)C4)c(C=O)nc32)ncc1C#N` [N-(5-cyano-4-((2-methoxyethyl)amino)pyridin-2-yl)-7-formyl-6-((4-methyl-3-oxopiperazin-1-yl)methyl)-3,4-dihydro-1,8-naphthyridine-1(2H)-carboxamide], the IC50 amounted to 1.3 nM in assay [1] (setting [4]) and 7.1 nM on Tel-FGFR4 (setting [5]).

In general, IC50 refers to the concentration needed to halve the response being measured.
